In experiment [1] the test system is Glycine max. The experiment in a line: Catalytic competence for soybean sterol methyl transferase (SMT) assay was determined.
Experiment [2] concerns Glycine max. The experiment is described as follows: Catalytic rate constant was evaluated for the soybean sterol methyl transferase (SMT) action.
Experiment [3] in a line: Compound (100 uM) and 26,27-DHC for 45 min.
A short description of experiment [4]: Compound (50 uM) and 26,27-DHC for 45 min.
Experiment [5] concerns Glycine max. The experiment in a line: Michaelis-Menten constant was evaluated for the soybean sterol methyl transferase (SMT) action.
Experiment [6] concerns Glycine max. The experiment is described as follows: Maximum rate of inactivation for the soybean sterol methyl transferase (SMT) action was determined.
The nature of experiment [7]: Ratio of kcat to kinact for the compound was determined.
Experiment [8] is described as follows: Apparent Ki value was calculated. Also on record: species or system Glycine max.
For experiment [9], the system named is Glycine max. The experiment is described as follows: Catalytic competence for sterol methyl transferase (SMT) assay was determined.

In turn, `C=C(CCC(C)C1CC[C@@]2(C)C3CCC4C(C)(C)C(O)CCC45CC35CCC12C)C(C)C` (some centres not stated) returned an Activity with Glycine max [1] of 3e-05.

As usually defined, the Km is the substrate concentration at which the rate is half of its maximum. `CC(C)=CCCC(C)C1CC[C@@]2(C)C3CCC4C(C)(C)C(O)CCC45CC35CCC12C` (some centres not stated) yielded a k cat in the experiment on Glycine max [2] of 0.01 s⁻¹. For the same compound, the Activity was 33% in experiment [3], 48% in experiment [4] and 3e-05 with Glycine max [1]. Besides, the Michaelis constant (Km) in the experiment on Glycine max [5] is 30 µM.

In turn, `CC(CCC=C1CC1)C1CC[C@@]2(C)C3CCC4C(C)(C)C(O)CCC45CC35CCC12C` (some centres not stated) displayed a K inact in the experiment on Glycine max [6] of 0.29 min⁻¹. The k cat in the experiment with Glycine max [2] was found to be 0.0003 s⁻¹. Further, the Ratio in experiment [7] was 0.06. The Ki in experiment [8] was 42 µM. This compound also gave an Activity in the experiment with Glycine max [9] of 3e-05. For the same compound, the Km with Glycine max [5] stood at 10 µM.

Values taken from ChEMBL document CHEMBL1146707, “Mechanism-based active site modification of the soybean sterol methyltransferase by 26,27-dehydrocycloartenol” (Bioorg Med Chem Lett, 2004).
